# Results from publication PMC9532399, “The lysosomal transporter TAPL has a dual role as peptide translocator and phosphatidylserine floppase” (Nature Communications, 2022).
# Target: T1, mouse TAPL ΔTMD0 (Mus musculus, UniProt Q9JJ59)
# T1 construct: thrombin cleavage site (C); eGFP (C); 10XHis (C); made in house; host or cells: Trichoplusia ni High Five (Hi5) insect cells, baculovirus (pVL1393)
# T1 sequence (Q9JJ59 143-762): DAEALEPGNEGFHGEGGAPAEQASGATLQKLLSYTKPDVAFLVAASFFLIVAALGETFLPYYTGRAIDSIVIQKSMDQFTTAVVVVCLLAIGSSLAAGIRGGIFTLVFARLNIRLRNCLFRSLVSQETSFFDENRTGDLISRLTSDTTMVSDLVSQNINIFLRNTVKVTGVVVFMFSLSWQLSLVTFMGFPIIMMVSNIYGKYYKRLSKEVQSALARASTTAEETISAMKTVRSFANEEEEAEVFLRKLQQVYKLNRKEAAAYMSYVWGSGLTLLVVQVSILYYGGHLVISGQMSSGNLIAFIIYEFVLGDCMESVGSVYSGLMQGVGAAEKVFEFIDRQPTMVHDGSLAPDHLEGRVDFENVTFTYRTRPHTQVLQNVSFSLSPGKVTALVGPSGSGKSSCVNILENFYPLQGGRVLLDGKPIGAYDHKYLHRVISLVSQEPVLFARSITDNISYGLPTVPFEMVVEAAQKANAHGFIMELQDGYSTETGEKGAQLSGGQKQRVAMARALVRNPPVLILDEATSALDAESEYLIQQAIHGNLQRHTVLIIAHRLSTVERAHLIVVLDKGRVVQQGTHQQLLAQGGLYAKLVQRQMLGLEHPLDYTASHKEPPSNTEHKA
# Test: Dithionite-based flip-flop (floppase) assay of NBD*-labeled lipids, ΔTMD0 proteoliposomes
# Assay type: biochemical
# Conditions: for fluorescence remaining after dithionite: 10 mM dithionite
# Method: All lipids used in reconstitution were purchased from Avanti Polar Lipids, Inc. (purity > 99%). The in vitro flip–flop assay was performed using NBD* dye-labeled proteoliposomes as described previously. Briefly, E. coli polar lipids and egg PC were mixed in a 1:1 molar ratio, and 0.5% (mol/mol) NBD*-lipid was added. The lipid mixture was then dried under nitrogen gas. The NBD*-lipids used were 18:1-06:0 NBD*-PS (1-oleoyl-2-{6-[(7-nitro-2-1,3-benzoxadiazol-4-yl)amino]hexanoyl}-sn-glycero-3-phosphoserine), 18:1-06:0 NBD*-PC (1-oleoyl-2-{6-[(7-nitro-2-1,3-benzoxadiazol-4-yl)amino]hexanoyl}-sn-glycero-3-phosphocholine), 18:1-06:0 NBD*-PG (1-oleoyl-2-{6-[(7-nitro-2-1,3-benzoxadiazol-4-yl)amino]hexanoyl}-sn-glycero-3-[phospho-rac-(1-glycerol)]), 18:1-06:0 NBD*-PE (1-oleoyl-2-{6-[(7-nitro-2-1,3-benzoxadiazol-4-yl)amino]hexanoyl}-sn-glycero-3-phosphoethanolamine), and 25-NBD*-Cholesterol (25-[N-[(7-nitro-2-1,3-benzoxadiazol-4-yl)methyl]amino]−27-norcholesterol). Thin lipid films were solubilized in 20 mM HEPES–NaOH pH 8.0, 200 mM NaCl and 5% (v/v) glycerol, incubated at RT for 30 min and subjected to 5 freeze–thaw cycles. After extrusion with a Mini-Extruder at 65 °C, final lipid concentrations were determined by phosphorus assays. Briefly, 10 μL of extruded lipid was added to 10 μL of 2% (w/v) ammonium molybdate and 300 μL of concentrated perchloric acid. The mixture was heated at 250 °C for 30 min, then cooled to RT and mixed with 1.5 mL of 0.4% (w/v) ammonium molybdate and 250 μL of 9% (w/v) L-ascorbic acid. It was again heated at 100 °C for 6 min and cooled to RT. Lipid concentrations were calculated from the absorbance at 820 nm using a standard curve prepared with NaH2PO4 solution. After accurately determining the lipid concentration, DM-purified protein and 5 mM lipid suspension (solubilized in 5 mM DM) were mixed 1:25 (w/w). After incubation at 4 °C for 1.5 h, DM detergent was removed with 75 mg Bio-beads SM-2 by periodic gentle shaking for 1 h at 4 °C (Supplementary Fig. 5a). The beads were replaced once, followed by an additional incubation at 4 °C for 2 h to completely remove detergent. The resulting proteoliposomes were collected by ultracentrifugation at 200,000×g for 1.5 h at 4 °C.
# To measure the flip–flop activity, 10 μL of 2 mM NBD*-labeled proteoliposomes were added to 100 μL of reaction buffer (20 mM HEPES–NaOH pH 8.0, 200 mM NaCl, 5 mM ATP and 5% (v/v) glycerol) in the presence of 2 mM MgCl2 (or NaCl), and incubated at 37 °C for 1 h. The mixture was transferred to a 96-well plate and time-dependent fluorescence (λex/λem = 460/538 nm) was recorded every 30 s for 26 min using a fluorescence spectrophotometer (Gemini XPS). After the baseline fluorescence had stabilized, 10 mM sodium dithionite was added to quench the fluorescence of NBD*-lipid present in the outer leaflets of the liposomes. The initial rapid drop and subsequent slow decline in fluorescence intensity were monitored. When a new steady state was established, 1% (v/v) Triton X-100 was added to completely disrupt the liposomes. The net percentage of NBD*-lipid translocated across the lipid bilayer was calculated from the following equation[72]: the percentage of protected NBD*-lipid in the inner leaflet = [(FD−F0)/(FT−F0)]×100, and that of accessible NBD*-lipid in the outer leaflet = [(FT−FD)/(FT−F0)]×100, where FT is the total fluorescence of the sample before the addition of dithionite, FD is the fluorescence of the sample after quenching with dithionite, and F0 is any residual fluorescence of the sample after solubilization with Triton X-100. Fluorescence values (FT, FD, F0) were calculated as the averages of 5 points on the respective plateau lines. The ΔTMD0-mediated lipid floppase activity was determined by subtracting the percentage of NBD*-lipid fluorescence measured in the presence of Na^+/ATP from that measured in the presence of Mg^2+/ATP.
compound,measurement,setting,value
"CCCCCCCC/C=C\CCCCCCCC(=O)OC[C@H](COP(=O)(O)OC[C@H](N)C(=O)O)OC(=O)CCCCCNc1ccc([N+](=O)[O-])c2nonc12 [NBD*-PS, 1-oleoyl-2-{6-[(7-nitro-2-1,3-benzoxadiazol-4-yl)amino]hexanoyl}-sn-glycero-3-phosphoserine]",difference of inner leaflet fluorescence with and without hydrolysable ATP,Mg2+/ATP minus Na+/ATP,~ 4.5%
same,NBD*-PS fluorescence intensity (net percentage transported outer to inner leaflet),"Mg2+/ATP minus Na+/ATP, 5 mM ATP, 37 °C 1 h, no peptide, no POPS, mean n=9",4.53%
same,NBD*-PS fluorescence intensity (net percentage transported),"Mg2+/ATP minus Na+/ATP, with 9-mer peptide, mean n=5",2.081%
same,NBD*-PS fluorescence intensity (net percentage transported),"Mg2+/ATP minus Na+/ATP, with 10% (mol/mol) POPS, mean n=5",2.6371%
same,fluorescence remaining after dithionite,"Mg2+/ATP, % of original value",~ 36.2%
same,ATP-dependent lipid transport by ΔTMD0,"NBD*-labeled lipid, PE, PG, PC and cholesterol data not shown",high
same,fluorescence remaining after dithionite,"Na+/ATP, % of original fluorescence",~ 31.7%
same,NBD*-PS fluorescence intensity (net percentage transported),"no peptide, no POPS, replicate I",5.0115%
same,NBD*-PS fluorescence intensity (net percentage transported),"no peptide, no POPS, replicate II",5.082%
same,NBD*-PS fluorescence intensity (net percentage transported),"no peptide, no POPS, replicate III",5.234%
same,NBD*-PS fluorescence intensity (net percentage transported),"no peptide, no POPS, replicate IV",3.911%
same,NBD*-PS fluorescence intensity (net percentage transported),"no peptide, no POPS, replicate IX",4.577%
same,NBD*-PS fluorescence intensity (net percentage transported),"no peptide, no POPS, replicate V",3.922%
same,NBD*-PS fluorescence intensity (net percentage transported),"no peptide, no POPS, replicate VI",4.247%
same,NBD*-PS fluorescence intensity (net percentage transported),"no peptide, no POPS, replicate VII",4.366%
same,NBD*-PS fluorescence intensity (net percentage transported),"no peptide, no POPS, replicate VIII",4.416%
same,NBD*-PS fluorescence intensity (net percentage transported),"with 9-mer peptide, replicate I",2.499%
same,NBD*-PS fluorescence intensity (net percentage transported),"with 9-mer peptide, replicate II",2.553%
same,NBD*-PS fluorescence intensity (net percentage transported),"with 9-mer peptide, replicate III",1.795%
same,NBD*-PS fluorescence intensity (net percentage transported),"with 9-mer peptide, replicate IV",1.566%
same,NBD*-PS fluorescence intensity (net percentage transported),"with 9-mer peptide, replicate V",1.9894%
same,NBD*-PS fluorescence intensity (net percentage transported),"with 10% (mol/mol) POPS, replicate I",2.817%
same,NBD*-PS fluorescence intensity (net percentage transported),"with 10% (mol/mol) POPS, replicate II",2.678%
same,NBD*-PS fluorescence intensity (net percentage transported),"with 10% (mol/mol) POPS, replicate III",2.164%
same,NBD*-PS fluorescence intensity (net percentage transported),"with 10% (mol/mol) POPS, replicate IV",2.878%
same,NBD*-PS fluorescence intensity (net percentage transported),"with 10% (mol/mol) POPS, replicate V",2.648%
same,true active floppase activity of the transporter,ΔTMD0 minus E664Q,~ 2.6%
"RRYQNSTC^5-IAFL [9-mer, 5-IAF-labeled peptide of 9 residues (RRYQNSTC^5-IAFL)]",effect on translocation of NBD*-PS,"10% (mol/mol) unlabeled POPS, or presence of the 9-mer peptide",inhibited
